Data from patent US11318190B2, “Methods and compositions for treating liver disease” (UNITED STATES GOVERNMENT AS REPRESENTED BY THE DEPARTMENT …, priority 2017, dated 2022).

Experiments:
[1] = test system: large IMCLs; test: Large IMCLs treated with secretin with/without LY2109761, or with TGF-β1 (Example 2); assay type: cell-based, mouse; conditions: LY2109761 10 nM
Description: Cholangiocytes were obtained by immunoaffinity separation as described herein above, using a monoclonal antibody (a gift from Dr. R. Faris, Brown University, Providence, R.I.) that is expressed by all intrahepatic cholangiocytes. HSCs from the selected groups of mice were isolated by LCM as described previously in Wu, N et al., The secretin/secretin receptor axis modulates liver fibrosis through changes in transforming growth factor-beta1 biliary secretion in mice, Hepatology (Baltimore, Md.) 64(3):865-879 (2016). Briefly, frozen liver sections (n=3, 10 μm thick) were incubated overnight with an anti-desmin (a marker of stellate cells) antibody. Then, desmin-positive cells were dissected from the slides using a LCM system Leica LMD7000 (Buffalo Grove, Ill.) and were collected before RNA extraction with the Arcturus PicoPure RNA isolation kit (Thermo Fisher Scientific CO, Mountain View, Calif.). The in vitro studies were performed in: (I) immortalized murine cholangiocyte lines derived from large cholangiocytes lining large ducts (IMCLs); and (ii) human hepatic stellate cell lines (HHSteCs; ScienCell Research Laboratories, Carlsbad, Calif.).
WT mice were treated for 1 wk with saline or secretin (Sct; 2.5 nmoles/kg body weight per day) before collecting cholangiocytes, HSCs and cholangiocyte supernatants. The levels of TGF-β1 were measured in short-term (6-hour) cultures of cholangiocytes by ELISA kits. Subsequently, we measured: (i) liver fibrosis by immunofluorescence for Col1a1 in liver sections and real-time PCR for TGF-β1, TFG-β1R, Col1a1, α-SMA and Fn1 in cholangiocytes and HSCs; and (ii) cellular senescence by immunofluorescence in liver sections for p16 and real-time PCR for p16 and p21 in cholangiocytes and HSC.
(§1) Biliary supernatants were obtained from normal and BDL WT mice and Sct^−/−, SR^−/− and Sct^−/−/SR^−/− BDL mice as well as normal WT mice treated with saline or secretin. HHSteCs were incubated with the aforementioned biliary supernatants (containing different levels of TGF-β1) for 24 hr (in the absence or presence of LY2109761) before measuring the expression of senescence and fibrosis genes by real-time PCR. Furthermore, HHSteCs were incubated with the supernatant of large IMCLs treated for 0.2% bovine serum albumin (basal) or secretin (10 nM) with/without LY2109761 for 6 hr before measuring the mRNA expression of fibrosis and senescence genes. To provide direct evidence that TGF-β1 directly modulates fibrosis and senescence of IMCLs and HHSteCs, these cells were stimulated with TGF-β1 (10 nM) for 24 hr before measuring the expression of PCNA as well as fibrosis and senescence genes by real-time PCR.

[2] = target: TGF-β receptor type II (Homo sapiens, UniProt P37173); conditions: cited from earlier work
[3] = test system: HHSteCs; test: HHSteCs treated with cholangiocyte supernatants with/without LY2109761, TGF-β1 or r-VEGFA (Example 4); assay type: cell-based, human; conditions: LY2109761 10 μM, cholangiocyte supernatants from Mdr2−/− mice, 12 hr
Description: Cholangiocytes were obtained by immunoaffinity separation, Cholangiocytes were obtained by immunoaffinity separation as described herein above, using a monoclonal antibody (a gift from Dr. R. Faris, Brown University, Providence, R.I.) that is expressed by all intrahepatic cholangiocytes. Cell viability (greater than 97%) was assessed by trypan blue exclusion. HSCs were isolated by LCM as described herein above. Frozen liver sections (n=3, 10 μm thick) were incubated overnight with an antibody against desmin (marker of stellate cells). Following staining, desmin-positive HSCs were dissected from the slides by a LCM system Leica LMD7000 (Buffalo Grove, Ill.) and collected into a PCR tube before being analyzed. The RNA from HSCs was extracted with the Arcturus PicoPure RNA isolation kit (Thermo Fisher Scientific CO, Mountain View, Calif.). The in vitro studies were performed in our immortalized murine biliary cell lines (IMCLs) and human hepatic stellate cell lines (HHSteCs, Sciencell, Carlsbad, USA).
In biliary supernatants, the levels of TGF-β1 were measured by ELISA kits. HHSteCs were incubated with cholangiocyte supernatants from the selected groups of animals for 12 hr (in the absence or presence of LY2109761, 10 μM, a TGF-β1 receptor antagonist, Cayman Chemical, Ann Arbor, Mich.) before measuring the expression of VEGF-A and senescent and fibrosis genes by qPCR. To determine that Sct increases TGF-β1 levels by a microRNA 125b-dependent mechanism, IMCLs were treated with Sct (10 nM in the absence/presence of a microRNA 125b mimic precursor, 5 μM) for 12 hr before measuring TGF-β1 mRNA expression (by qPCR) and secretion by ELISA kits. To provide conclusive evidence that TGF-β1 directly modulates the function IMCLs and HHSteCs, these cells were stimulated with TGF-β1 (10 nM) for 12 hr before measuring the expression of VEGF-A and senescent and fibrosis genes by qPCR. […] We also evaluated by immunofluorescence the expression of VEGFR-2 in cell smears of IMCLs and HHSteCs. […]

[4] = test system: HHSteCs; test: HHSteCs incubated with biliary/IMCL supernatants with/without LY2109761, or with TGF-β1 (Example 2); assay type: cell-based, human
Description: as §1

Chain of TGF-β receptor type II (P37173 23-567): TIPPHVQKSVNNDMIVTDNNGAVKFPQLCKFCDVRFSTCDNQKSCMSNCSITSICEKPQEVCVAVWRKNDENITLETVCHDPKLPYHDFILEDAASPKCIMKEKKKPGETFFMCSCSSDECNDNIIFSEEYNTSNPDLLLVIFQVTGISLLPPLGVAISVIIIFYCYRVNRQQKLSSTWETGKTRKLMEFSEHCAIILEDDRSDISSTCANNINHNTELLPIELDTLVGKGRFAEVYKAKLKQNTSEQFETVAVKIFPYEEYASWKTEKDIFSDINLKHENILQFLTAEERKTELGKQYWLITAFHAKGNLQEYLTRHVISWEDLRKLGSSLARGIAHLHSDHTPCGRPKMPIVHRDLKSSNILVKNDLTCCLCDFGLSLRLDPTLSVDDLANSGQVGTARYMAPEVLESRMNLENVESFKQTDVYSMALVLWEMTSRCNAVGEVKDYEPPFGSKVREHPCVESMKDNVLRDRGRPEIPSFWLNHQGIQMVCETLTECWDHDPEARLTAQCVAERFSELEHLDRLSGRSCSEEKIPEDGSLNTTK

For `c1ccc(-c2nn3c(c2-c2ccnc4cc(OCCN5CCOCC5)ccc24)CCC3)nc1` [LY2109761], the “effect of preincubation on secretin-induced TGF-β1 secretion and fibrosis/senescence genes of large IMCLs” value [1] is given as “prevented”, the Ki [2] is given as 300 nM and the “effect of preincubation on VEGF-A, fibrosis and senescence gene changes in HHSteCs” value [3] is given as “reversed”. For the same compound, the “effect of preincubation on fibrosis/senescence gene changes in HHSteCs” value ([4]; before supernatant from secretin-treated WT mice) was “reversed” and the “effect of preincubation on fibrosis/senescence gene changes of HHSteCs” value ([4]; supernatant of secretin-treated large IMCLs) was “reversed”.
